The conditions of data set [1]: for 2-methylserotonin remaining: 200 ng spike-in.
Another data set relates to rat hepatocytes. The conditions noted are these: cited from earlier work.
A short description of data set [2]: Human studies with pea and orange fiber snack prototypes: fecal N-methylserotonin and serotonin levels. The format is in vivo. As to conditions: in vivo. The procedure: Human studies with pea and orange fiber snack prototypes. Two separate open-label, single group assignment studies were performed involving members of the Missouri Adolescent Female Twin Study (MOAFTS) cohort who were age 31-45 years at the time of enrollment. The first study with the pea fiber snack was performed between April and August 2017, while the second study with the orange fiber snack was conducted between August and December 2017. All participants provided written informed consent and the studies were approved by the Washington University Institutional Review Board (IRB ID #201611122). (ClinicalTrials.gov NCT03078283).
The design of the two studies were identical except for the fiber snack supplement used and the number of participants in each study. Individuals who were pregnant or trying to get pregnant, had inflammatory bowel disease, gastrointestinal cancer, hepatitis, HIV, renal failure, or allergies to dairy, eggs, fish, crustacean shellfish, tree nuts, sesame seeds, peanuts, wheat, gluten, soybeans, celery, or mustard were excluded from the study. In Study 1, four twin pairs were concordant for obesity (BMI>30 kg/m2) while five pairs were discordant with one member being obese and the other non-obese (n=18 participants, […] (mean±SD); Table S8B). Study 2 involved 24 participants: 12 dizygotic twin pairs [37±2.9 years (mean±SD)], nine of whom had participated in the pea fiber study; for these nine pairs, the interval between cessation of pea fiber snack consumption and initiation of orange fiber consumption ranged from 50 to 106 days [84+26 days (mean±SD)]. Participants consumed their normal, unrestricted diet for the first two weeks of the study (pre-intervention phase). At the beginning of week three, they supplemented their diets with one 35 g fiber snack serving a day for one week, then two 35 g snack servings a day the following week, and thereafter, three 35 g snacks per day for four weeks (weeks 5-8) at breakfast, lunch and dinner. No attempt was made to adjust the diets of participants other than supplementation with the fiber snack. Snack prototypes were manufactured by Mondeldz International, Inc. (see Table S8A for their composition), which participants received in weekly shipments from the study center. The pea fiber snacks were in the form of rotary biscuits (6.7 g total fiber/35 g snack) or extruded bars (8.1 g fiber/35 g snack) with participants having the option to alternate between them. The orange fiber snacks were all in the form of extruded bars (10.2 g total fiber/35 g snack). Compliance was monitored throughout by the study coordinator through weekly phone calls. The primary outcomes for each study were the effects of the respective prototypes on gut microbial community structure and function.
Fecal samples were collected by participants in small medically approved collection containers. Each fecal sample was frozen immediately at −20° C. and temporarily stored in dedicated freezers provided to participants at the beginning of the study. Within 12-48 hours after collection, all samples were shipped, via overnight delivery, in an insulated container containing frozen gel packs, to a biospecimen repository located in Washington University in St. Louis and overseen by one of the authors (A.C.H.). Once received, samples were stored at −80° C. until processing for LC-QqQ-MS analysis of N-methylserotonin levels and culture-independent characterization of ASV and CAZyme gene abundances.
Measurement of fecal N-methylserotonin levels—Each fecal sample was homogenized with a porcelain mortar (4 L) and pestle while submerged in liquid nitrogen; multiple 500 mg aliquots of the pulverized frozen material were stored at −80° C. N-methylserotonin was quantified using the same protocol that was employed for mouse fecal samples (as described herein elsewhere).
N-methylserotonin levels and microbiome CAZyme gene abundances in humans consuming fiber snack prototypes. […]

Data set [3] is described as follows: In vitro screening of bacterial strains for N-methylserotonin releasing activity from orange fiber. The conditions noted are these: for N-methylserotonin released, MEGA Medium 2.0 72 hrs / N-methylserotonin released, TYG medium 8 hrs / N-methylserotonin released, TYG medium 24 hrs / N-methylserotonin released, TYG medium 48 hrs / N-methylserotonin released, TYG medium 72 hrs / N-methylserotonin released, Wilkins-Chalgren 72 hrs: 5 mg/ml orange fiber, normalized to 10^6 microbes, n=3. It is filed as cell-based, human gut bacterial strains. The procedure:
In vitro screening of bacterial strains for N-methylserotonin releasing activity. A given bacterial strain was grown in monoculture at 37° C. in TYG medium in an anaerobic chamber (atmosphere; 75% N2, 20% CO2 and 5% H2) to stationary phase. An aliquot was then added to 10 mL of fresh TYG medium with or without 50 mg of orange fiber that had been sterilized by gamma irradiation (30-50 KGy); the mixture was incubated under anaerobic conditions without shaking for 72 hours. A 200 μL aliquot was then removed for targeted LC-QqQ-MS measurement of N-methylserotonin levels; another aliquot was used to define the number of colony-forming units so that levels of the analyte were expressed per 10^6 cells. An identical protocol was used to compare the amount of N-methylserotonin released when two other rich media, MEGA medium 2.0 and Wilkins-Chalgren anaerobe broth (Thermo-Fisher), were used in lieu of TYG. All incubations were performed in triplicate for each condition. […]
Bacterial strains capable of mining of N-methylserotonin from orange fiber in vitro. Given that detection of N-methylserotonin was dependent on colonization with the bacterial consortium and consumption of orange fiber, it was next investigated which community members were responsible for its appearance. Each of the 14 community members was grown in monoculture to stationary phase in TYG medium; 10^5 cells of each organism were incubated in 10 mL of a 5 mg/mL suspension of orange fiber for 8, 24, 48, 72 and 168 hours. N-methylserotonin was quantified using targeted LC-QqQ-MS. […] At this time point, Bacteroides ovatus strain TSDC 17.2 and a strain of Parabacteroides distasonis yielded similar quantities of product (29±1 and 24±2 ng N-methylserotonin/10^6 cells, respectively). In contrast, the 12 other strains yielded<1.5 ng/10^6 cells—an amount that was not appreciably higher than background levels (triplicate incubations/organism; FIG. 1C). […]

Data set [4] is described as follows: Release of N-methylserotonin from orange fiber by commercially available glycoside hydrolase preparations. The format is biochemical. The procedure:
Enzymatic screening of citrus & plant samples. All enzymatic assays are carried out using a total volume of 10 ml in water, 50 mg of plant fiber material tested and 700 active units of the same cellulase enzyme mixture (Sigma) as described herein. Samples were processed based on their condition, divided as follows. Citrus fibers sourced from various citrus types, described in Table S9 as “Ground,” are added directly to the enzymatic assay, while citrus fibers described as either “Granule” or “Whole” are first manually pulverized into a fine powder via mortar and pestle. The commercially available fiber source is classified as “Ground” if it was already processed into fine powder, or otherwise small enough granules in which individual pieces cannot be manually picked up via forceps. The commercially available fiber source is classified as “Granule” or “Whole” if individual fragments or pieces of the fiber is readily discernable, where “Granule” are applied to visibly uniform samples and “Whole” applied to all other samples. […]
Identifying genes involved in release of N-methylserotonin from orange fiber. […] When orange fiber (50 mg) was subjected to repeated rounds of extraction with methanol, small quantities of N-methylserotonin were released after each round (31 ng after two rounds; 171 ng in total after 15 rounds; Table S4F). […]

Data set [5] in a line: Control experiments of bacterial N-methylserotonin release (heat-killed cells, conditioned media, lysates). The format is cell-based, human gut bacterial strains. The procedure:
Experiments seeking to test the necessity of having live bacteria to extract N-methylserotonin were carried out by first incubating monocultures of B. ovatus, B. finegoldii, […] conditions to stationary phase. The stationary phase culture was then treated at 70° C. for 1 hour. […]
Experiments using conditioned media were carried out by taking monocultures of B. ovatus, B. finegoldii, P. distasonis, […], centrifuging the culture for […]
Experiments using bacterial lysates were carried out by bead-beating of bacterial cells, collected by centrifugation from 10 mL stationary phase TYG cultures for 4 minutes at room temperature; 500 μL of the […] To ensure sterility in these experiments, aliquots of the heat-treated cells, centrifuged conditioned media, or bacterial lysate were cultured in TYG medium for 7 days and subsequently plated on TYG-agar; the results confirmed the absence of colony forming units. Assays were performed in triplicate for each experimental condition.
These experiments indicate that mining requires intact viable cells.

Results on six compounds are retold here after US20250345370A1, “MICROBIAL LIBERATION OF N-METHYLSEROTONIN FROM ORANGE FIBER” (Washington University, priority 2022, published 2025).

Like-named read-outs stand apart in the source and are kept apart here.

`Cc1[nH]c2ccc(O)cc2c1CCN` [2-methylserotonin, reference compound]: the 2-methylserotonin remaining stood at 190 ng in data set [1] (Extraction 1); 10 ng in data set [1] (Extraction 2); 0 ng in data set [1] (Extraction 3); 0 ng in data set [1] (Extraction 4); 0 ng in data set [1] (Extraction 5); 0 ng in data set [1] (Extraction 6). Further, the 2-methylserotonin remaining in data set [1] (Extraction 7), in data set [1] (Extraction 8), in data set [1] (Extraction 9), in data set [1] (Extraction 10), in data set [1] (Extraction 11) and in data set [1] (Extraction 12) was 0 ng each time. Further, the 2-methylserotonin remaining in data set [1] (Extraction 13), in data set [1] (Extraction 14) and in data set [1] (Extraction 15) was 0 ng in each case. Also, the “2-methylserotonin removed by the first cycle of extraction” value in data set [1] (methanol, spike-in added to orange fiber) was determined as 95%.

For the compound `CC(N)Cc1c[nH]c2ccc(O)cc12` (stereo not drawn) [alpha-methylserotonin], the glycogen synthesis result in the data set with rat hepatocytes is recorded as “able to increase glycogen synthesis”.

Turning to `NCCc1c[nH]c2ccc(O)cc12` [serotonin], the fecal serotonin levels in data set [2] (female, human) worked out at 7 ± 5.7 µM. For the same compound, in data set [2], the “fecal serotonin levels as % of that of N-methylserotonin” value is recorded as 0-8.6%. In addition, the glycogen synthesis result in the data set with rat hepatocytes is given as “decreases glycogen synthesis”.

For Bacteroides cellulosilyticus, in data set [3], the “N-methylserotonin released, MEGA Medium 2.0 72 hrs” value was 1.0 ± 0.2 ng; the “N-methylserotonin released, TYG medium 8 hrs” value is recorded as 0.3 ± 0.1 ng; the “N-methylserotonin released, TYG medium 24 hrs” value stood at 0.3 ± 0.1 ng; the “N-methylserotonin released, TYG medium 48 hrs” value is given as 0.6 ± 0.1 ng. Moreover, in data set [3], the “N-methylserotonin released, TYG medium 72 hrs” value is recorded as 0.9 ± 0.2 ng and the “N-methylserotonin released, Wilkins-Chalgren 72 hrs” value amounted to 1 ± 0.2 ng.

Take Cellulase: the “N-methylserotonin levels at 72 h” value in data set [4] (50 mg orange fiber incubated with enzyme) is 2727.9 ± 25.5 ng. The “total yield of N-methylserotonin” value in data set [4] (orange fiber incubated with enzyme preparation) was determined as 2728±26 ng/50 mg orange fiber.

As for Parabacteroides distasonis, in data set [5] (Mega 2.0 (+orange fiber)), the “N-methylserotonin levels, Cellular extract” value was determined as 0.3 ± 0.1 ng; the “N-methylserotonin levels, Conditioned media” value was found to be 0.3 ± 0.1 ng; the “N-methylserotonin levels, Heat inactivated” value is on record as 0.4 ± 0.1 ng. Also, in data set [5] (Mega 2.0, no orange fiber), the “N-methylserotonin levels, Cellular extract” value is reported as “ND (ND (not detected)=N-methylserotonin levels below 0.02 ng)”; the “N-methylserotonin levels, Conditioned media” value is reported as “ND (ND (not detected)=N-methylserotonin levels below 0.02 ng)”; the “N-methylserotonin levels, Heat inactivated” value is recorded as “ND (ND (not detected)=N-methylserotonin levels below 0.02 ng)”. For the same compound, in data set [5] (TYG (+orange fiber)), the “N-methylserotonin levels, Cellular extract” value was 0.2 ± 0.1 ng; the “N-methylserotonin levels, Conditioned media” value is reported as 0.3 ± 0.1 ng; the “N-methylserotonin levels, Heat inactivated” value was determined as 0.3 ± 0.1 ng. Besides, in data set [5] (TYG, no orange fiber), the “N-methylserotonin levels, Cellular extract” value was “ND (ND (not detected)=N-methylserotonin levels below 0.02 ng)”; the “N-methylserotonin levels, Conditioned media” value is “ND (ND (not detected)=N-methylserotonin levels below 0.02 ng)”; the “N-methylserotonin levels, Heat inactivated” value is on record as “ND (ND (not detected)=N-methylserotonin levels below 0.02 ng)”. Besides, the “N-methylserotonin levels with heat-killed cells, lysates or conditioned medium” value in data set [5] (fresh TYG with orange fiber, 72 hours) was “failed to yield levels of N-methylserotonin above background”. Besides, in data set [3], the “N-methylserotonin released, MEGA Medium 2.0 72 hrs” value stood at 24.8 ± 2.1 ng; the “N-methylserotonin released, TYG medium 8 hrs” value is 0.3 ± 0.1 ng; the “N-methylserotonin released, TYG medium 24 hrs” value stood at 1.0 ± 0.1 ng; the “N-methylserotonin released, TYG medium 48 hrs” value turned out to be 7.5 ± 0.7 ng. Also, in data set [3], the “N-methylserotonin released, TYG medium 72 hrs” value came to 24.3 ± 2.4 ng and the “N-methylserotonin released, Wilkins-Chalgren 72 hrs” value was 22.1 ± 0.7 ng. For the same compound, the “N-methylserotonin yielded at the 72-hour time point” value in data set [3] (TYG, 5 mg/mL orange fiber, triplicate) is listed as 24±2 ng N-methylserotonin/10^6 cells.
